Test results as given in ChEMBL document CHEMBL1142268, “Histone deacetylase inhibitors: from bench to clinic” (J Med Chem, 2008).
Blank lines part the entries; values can stand above or below the compound they belong to. Active and inactive are the calls of the source. No cut-off for these calls is given here.

Legend:
HeLa = assay: Inhibition of human HeLa cells; format: functional, cell-based
HL-60 = assay: Inhibition of human HL60 cells; format: functional
Histone deacetylase 8 = target: T1, Histone deacetylase 8 (Homo sapiens, UniProt Q9BY41)
T1 sequence (Q9BY41 whole entry): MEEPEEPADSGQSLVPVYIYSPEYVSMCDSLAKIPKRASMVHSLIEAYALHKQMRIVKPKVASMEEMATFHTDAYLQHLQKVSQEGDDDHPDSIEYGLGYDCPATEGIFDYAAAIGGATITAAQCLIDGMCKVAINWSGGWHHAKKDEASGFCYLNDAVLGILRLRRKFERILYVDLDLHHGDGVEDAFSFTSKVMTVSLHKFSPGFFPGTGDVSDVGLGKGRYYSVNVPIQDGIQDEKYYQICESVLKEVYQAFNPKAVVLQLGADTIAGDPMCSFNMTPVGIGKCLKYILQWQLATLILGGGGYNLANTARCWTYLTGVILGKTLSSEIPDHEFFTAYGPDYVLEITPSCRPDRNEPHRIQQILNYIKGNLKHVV

Histone deacetylase 4 [1] = target: T2, Histone deacetylase 4 (Homo sapiens, UniProt P56524)
T2 sequence (P56524 whole entry): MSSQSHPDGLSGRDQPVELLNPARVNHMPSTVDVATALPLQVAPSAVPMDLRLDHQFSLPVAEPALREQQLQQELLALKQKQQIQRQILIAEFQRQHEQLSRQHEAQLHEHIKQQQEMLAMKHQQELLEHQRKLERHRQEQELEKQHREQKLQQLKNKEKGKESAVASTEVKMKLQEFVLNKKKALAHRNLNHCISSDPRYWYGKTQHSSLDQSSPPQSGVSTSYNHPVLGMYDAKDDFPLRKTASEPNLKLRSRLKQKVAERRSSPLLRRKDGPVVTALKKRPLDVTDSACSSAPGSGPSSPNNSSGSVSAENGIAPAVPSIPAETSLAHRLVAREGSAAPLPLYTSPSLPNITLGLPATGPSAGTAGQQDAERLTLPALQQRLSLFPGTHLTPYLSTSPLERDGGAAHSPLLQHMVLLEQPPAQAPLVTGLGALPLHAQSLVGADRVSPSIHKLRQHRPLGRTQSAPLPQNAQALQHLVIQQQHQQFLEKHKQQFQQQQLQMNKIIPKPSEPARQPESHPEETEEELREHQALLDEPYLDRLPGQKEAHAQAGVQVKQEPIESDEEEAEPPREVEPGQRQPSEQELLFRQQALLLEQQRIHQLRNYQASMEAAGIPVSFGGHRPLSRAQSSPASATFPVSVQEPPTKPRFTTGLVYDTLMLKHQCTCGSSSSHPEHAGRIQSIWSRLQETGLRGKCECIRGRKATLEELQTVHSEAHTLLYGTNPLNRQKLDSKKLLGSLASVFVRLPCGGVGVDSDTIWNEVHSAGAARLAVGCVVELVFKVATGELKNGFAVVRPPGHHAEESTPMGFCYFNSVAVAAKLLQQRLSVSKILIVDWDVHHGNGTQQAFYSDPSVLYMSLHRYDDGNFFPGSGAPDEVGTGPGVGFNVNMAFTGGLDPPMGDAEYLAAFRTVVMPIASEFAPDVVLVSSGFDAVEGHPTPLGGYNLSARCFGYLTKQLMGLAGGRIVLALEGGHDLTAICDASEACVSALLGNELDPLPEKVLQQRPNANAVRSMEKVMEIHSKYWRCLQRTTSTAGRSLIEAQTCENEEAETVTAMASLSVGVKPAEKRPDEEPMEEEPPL

Histone deacetylase 5 = Histone deacetylase 5 (Homo sapiens, UniProt Q9UQL6)
Histone deacetylase 5, sequence (Q9UQL6 whole entry): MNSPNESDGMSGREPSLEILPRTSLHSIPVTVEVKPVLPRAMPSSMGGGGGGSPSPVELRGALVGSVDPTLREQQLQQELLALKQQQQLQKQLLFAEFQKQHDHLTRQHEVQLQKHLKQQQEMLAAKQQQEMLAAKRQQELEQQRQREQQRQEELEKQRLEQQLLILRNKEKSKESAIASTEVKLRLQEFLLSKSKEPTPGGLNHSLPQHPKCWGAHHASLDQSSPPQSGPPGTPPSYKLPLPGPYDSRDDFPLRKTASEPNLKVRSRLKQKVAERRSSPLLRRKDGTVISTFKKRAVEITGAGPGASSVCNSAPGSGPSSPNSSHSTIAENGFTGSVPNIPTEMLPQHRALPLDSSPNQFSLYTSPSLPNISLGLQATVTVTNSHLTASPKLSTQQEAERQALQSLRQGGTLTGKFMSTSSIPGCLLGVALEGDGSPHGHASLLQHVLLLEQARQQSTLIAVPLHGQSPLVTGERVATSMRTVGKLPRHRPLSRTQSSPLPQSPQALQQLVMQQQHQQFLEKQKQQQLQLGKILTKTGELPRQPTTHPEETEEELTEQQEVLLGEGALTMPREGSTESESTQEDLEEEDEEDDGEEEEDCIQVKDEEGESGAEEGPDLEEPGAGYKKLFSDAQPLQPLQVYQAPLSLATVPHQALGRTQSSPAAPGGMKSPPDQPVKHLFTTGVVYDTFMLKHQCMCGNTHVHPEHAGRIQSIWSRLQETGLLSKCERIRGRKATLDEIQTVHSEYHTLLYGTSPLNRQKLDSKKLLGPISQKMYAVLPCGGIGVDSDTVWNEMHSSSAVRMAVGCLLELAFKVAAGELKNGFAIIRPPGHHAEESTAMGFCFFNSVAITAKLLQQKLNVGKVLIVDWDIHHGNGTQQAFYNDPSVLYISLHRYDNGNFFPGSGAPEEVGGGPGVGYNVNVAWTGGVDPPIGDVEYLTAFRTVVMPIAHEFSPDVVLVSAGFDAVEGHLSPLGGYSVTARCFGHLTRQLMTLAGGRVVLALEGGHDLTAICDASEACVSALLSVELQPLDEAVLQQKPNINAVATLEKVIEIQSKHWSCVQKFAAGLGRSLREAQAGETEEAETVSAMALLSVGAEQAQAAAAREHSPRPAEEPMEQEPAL

Histone deacetylase 7 = Histone deacetylase 7 (Homo sapiens, UniProt Q8WUI4)
Histone deacetylase 7, sequence (Q8WUI4 whole entry): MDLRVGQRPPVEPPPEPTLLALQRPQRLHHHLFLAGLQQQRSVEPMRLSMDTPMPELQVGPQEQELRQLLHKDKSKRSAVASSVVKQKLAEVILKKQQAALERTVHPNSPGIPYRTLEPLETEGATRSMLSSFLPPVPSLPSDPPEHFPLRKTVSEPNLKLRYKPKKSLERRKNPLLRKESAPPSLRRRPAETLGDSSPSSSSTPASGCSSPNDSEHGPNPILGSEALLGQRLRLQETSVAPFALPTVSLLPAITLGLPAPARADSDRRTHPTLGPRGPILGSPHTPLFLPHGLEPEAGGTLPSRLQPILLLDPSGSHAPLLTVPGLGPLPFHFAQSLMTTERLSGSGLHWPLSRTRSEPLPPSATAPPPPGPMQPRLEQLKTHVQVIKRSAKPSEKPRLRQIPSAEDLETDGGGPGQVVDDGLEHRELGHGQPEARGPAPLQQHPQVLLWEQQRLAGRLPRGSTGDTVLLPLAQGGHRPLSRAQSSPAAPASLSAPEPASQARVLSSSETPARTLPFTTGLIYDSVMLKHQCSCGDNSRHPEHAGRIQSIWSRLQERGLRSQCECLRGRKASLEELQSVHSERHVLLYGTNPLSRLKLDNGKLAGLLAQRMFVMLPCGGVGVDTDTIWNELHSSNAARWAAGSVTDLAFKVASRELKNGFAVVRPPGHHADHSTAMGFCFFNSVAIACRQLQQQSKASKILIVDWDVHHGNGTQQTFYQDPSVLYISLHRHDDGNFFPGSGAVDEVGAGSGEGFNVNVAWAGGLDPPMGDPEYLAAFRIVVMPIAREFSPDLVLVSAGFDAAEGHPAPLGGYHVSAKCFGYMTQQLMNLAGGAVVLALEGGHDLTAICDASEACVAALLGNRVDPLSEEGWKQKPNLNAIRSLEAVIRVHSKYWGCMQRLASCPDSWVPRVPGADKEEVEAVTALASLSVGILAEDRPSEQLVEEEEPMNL

HCT-116 [2] = assay: Inhibition of human HCT116 cells; format: functional, cell-based
[3] = Bioavailability in […] dosed rat; format: ADME, organism-based; conditions: in vivo
A549 [4] = assay: Antitumor activity against human A549 cells xenografted in nude mouse model at 50 mg/kg, po; format: functional; conditions: read-out: TGI
PANC-1 = assay: Antitumor activity against human PANC1 cells xenografted in nude mouse model at 50 mg/kg, po; format: functional; conditions: read-out: TGI
SW48 [5] = assay: Antitumor activity against human SW48 cells xenografted in nude mouse model at 30 mg/kg, po; format: functional; conditions: read-out: TGI
A549 [6] = assay: Antitumor activity against human A549 cells xenografted in nude mouse model at 40 mg/kg, ip; format: functional; conditions: route intraperitoneal, read-out: TGI
HCT-116 [7] = assay: Antitumor activity against human HCT116 cells xenografted in nude mouse model at 75 mg/kg, ip; format: functional; conditions: HCT-116, ip, route intraperitoneal, read-out: TGI
SW48 [8] = assay: Antitumor activity against human SW48 cells xenografted in nude mouse model at 75 mg/kg, ip; format: functional; conditions: route intraperitoneal, read-out: TGI
MKN-45 = assay: Antiproliferative activity against human MKN45 cells; format: functional, cell-based
Cytochrome P450 3A4 = Cytochrome P450 3A4 (Homo sapiens, UniProt P08684); assay: Inhibition of CYP3A4; format: ADME
Cytochrome P450 3A4, sequence (P08684 whole entry): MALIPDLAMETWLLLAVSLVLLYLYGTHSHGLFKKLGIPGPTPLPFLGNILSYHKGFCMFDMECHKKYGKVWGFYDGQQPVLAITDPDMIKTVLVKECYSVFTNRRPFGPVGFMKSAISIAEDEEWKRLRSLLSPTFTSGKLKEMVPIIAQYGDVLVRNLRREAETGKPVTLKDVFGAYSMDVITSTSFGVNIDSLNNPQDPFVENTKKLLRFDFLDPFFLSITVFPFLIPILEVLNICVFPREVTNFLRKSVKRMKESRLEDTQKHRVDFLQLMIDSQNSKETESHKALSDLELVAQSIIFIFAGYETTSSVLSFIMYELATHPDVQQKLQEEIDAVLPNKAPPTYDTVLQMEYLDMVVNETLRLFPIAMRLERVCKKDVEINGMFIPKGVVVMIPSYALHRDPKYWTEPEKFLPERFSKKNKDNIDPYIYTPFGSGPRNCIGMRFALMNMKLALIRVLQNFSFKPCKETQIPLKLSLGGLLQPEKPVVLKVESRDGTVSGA

Histone deacetylase 3 = Histone deacetylase 3 (Homo sapiens, UniProt O15379)
Histone deacetylase 3, sequence (O15379 whole entry): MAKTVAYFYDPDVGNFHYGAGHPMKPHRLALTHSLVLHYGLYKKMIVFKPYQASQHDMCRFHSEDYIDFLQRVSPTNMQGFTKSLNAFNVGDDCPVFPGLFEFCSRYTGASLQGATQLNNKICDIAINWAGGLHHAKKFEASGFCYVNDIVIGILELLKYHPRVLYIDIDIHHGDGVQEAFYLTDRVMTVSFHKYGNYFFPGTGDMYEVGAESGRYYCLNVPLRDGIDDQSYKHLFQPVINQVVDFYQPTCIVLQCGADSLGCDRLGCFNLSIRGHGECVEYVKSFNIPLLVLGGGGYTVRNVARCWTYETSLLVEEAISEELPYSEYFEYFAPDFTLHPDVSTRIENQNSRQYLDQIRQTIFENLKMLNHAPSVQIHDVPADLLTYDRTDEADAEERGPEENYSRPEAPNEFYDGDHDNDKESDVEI

Histone deacetylase 4 [9] = target: T2, Histone deacetylase 4; assay: Inhibition of HDAC4 at 50 uM
[10] = target: T3, Protein deacetylase HDAC6 (Homo sapiens, UniProt Q9UBN7)
T3 sequence (Q9UBN7 whole entry): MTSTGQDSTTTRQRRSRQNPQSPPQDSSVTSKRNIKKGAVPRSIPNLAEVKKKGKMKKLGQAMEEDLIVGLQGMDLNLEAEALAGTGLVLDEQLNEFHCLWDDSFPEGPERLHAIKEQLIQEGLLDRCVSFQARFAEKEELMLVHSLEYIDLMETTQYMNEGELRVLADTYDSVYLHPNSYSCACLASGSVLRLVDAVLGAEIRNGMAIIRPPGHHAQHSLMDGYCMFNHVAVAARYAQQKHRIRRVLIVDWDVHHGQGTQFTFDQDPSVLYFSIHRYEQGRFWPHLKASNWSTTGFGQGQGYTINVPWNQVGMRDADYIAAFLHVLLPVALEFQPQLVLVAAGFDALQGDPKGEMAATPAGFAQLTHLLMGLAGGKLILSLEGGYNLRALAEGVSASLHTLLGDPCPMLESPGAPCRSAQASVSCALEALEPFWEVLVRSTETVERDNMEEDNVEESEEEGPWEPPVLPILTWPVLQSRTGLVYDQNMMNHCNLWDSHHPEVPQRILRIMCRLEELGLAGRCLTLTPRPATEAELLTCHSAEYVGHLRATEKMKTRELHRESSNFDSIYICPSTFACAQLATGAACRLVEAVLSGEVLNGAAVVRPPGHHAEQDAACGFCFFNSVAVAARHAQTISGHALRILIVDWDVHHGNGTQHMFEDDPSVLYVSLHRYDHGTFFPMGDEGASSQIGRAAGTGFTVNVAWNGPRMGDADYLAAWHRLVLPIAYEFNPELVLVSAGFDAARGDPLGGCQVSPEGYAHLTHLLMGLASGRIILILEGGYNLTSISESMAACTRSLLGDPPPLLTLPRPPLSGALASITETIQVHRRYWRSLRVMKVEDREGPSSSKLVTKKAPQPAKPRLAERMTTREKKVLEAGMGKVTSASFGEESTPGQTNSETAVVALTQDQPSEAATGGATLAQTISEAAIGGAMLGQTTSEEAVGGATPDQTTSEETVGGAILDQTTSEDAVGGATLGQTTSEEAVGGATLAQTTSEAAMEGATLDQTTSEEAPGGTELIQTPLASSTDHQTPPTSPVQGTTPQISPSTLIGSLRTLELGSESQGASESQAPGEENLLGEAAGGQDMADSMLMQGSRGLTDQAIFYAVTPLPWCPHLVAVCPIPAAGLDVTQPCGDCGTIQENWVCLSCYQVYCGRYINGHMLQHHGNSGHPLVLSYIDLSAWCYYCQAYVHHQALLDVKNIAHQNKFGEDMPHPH

Histone deacetylase 9 = Histone deacetylase 9 (Homo sapiens, UniProt Q9UKV0)
MCF7 = assay: Inhibition of human MCF7 cells; format: functional, cell-based
Histone deacetylase 2 = Histone deacetylase 2 (Homo sapiens, UniProt Q92769)
Histone deacetylase 2, sequence (Q92769 whole entry): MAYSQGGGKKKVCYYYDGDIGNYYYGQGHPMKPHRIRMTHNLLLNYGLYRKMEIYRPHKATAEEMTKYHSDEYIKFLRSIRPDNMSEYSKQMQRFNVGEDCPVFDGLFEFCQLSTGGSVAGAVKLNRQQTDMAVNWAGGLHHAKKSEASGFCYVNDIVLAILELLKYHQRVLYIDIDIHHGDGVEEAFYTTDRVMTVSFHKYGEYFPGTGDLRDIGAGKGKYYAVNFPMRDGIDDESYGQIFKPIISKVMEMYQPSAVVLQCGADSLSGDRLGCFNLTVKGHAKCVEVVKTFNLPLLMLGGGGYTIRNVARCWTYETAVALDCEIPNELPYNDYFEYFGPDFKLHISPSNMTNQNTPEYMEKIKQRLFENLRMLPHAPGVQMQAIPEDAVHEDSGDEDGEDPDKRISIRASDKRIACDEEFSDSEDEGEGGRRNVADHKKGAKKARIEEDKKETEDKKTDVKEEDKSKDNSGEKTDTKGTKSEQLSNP

Histone deacetylase 1 [11] = target: T4, Histone deacetylase 1 (Homo sapiens, UniProt Q13547); assay: Inhibition of HDAC1 from human HeLa cells; format: cell-based
T4 sequence (Q13547 whole entry): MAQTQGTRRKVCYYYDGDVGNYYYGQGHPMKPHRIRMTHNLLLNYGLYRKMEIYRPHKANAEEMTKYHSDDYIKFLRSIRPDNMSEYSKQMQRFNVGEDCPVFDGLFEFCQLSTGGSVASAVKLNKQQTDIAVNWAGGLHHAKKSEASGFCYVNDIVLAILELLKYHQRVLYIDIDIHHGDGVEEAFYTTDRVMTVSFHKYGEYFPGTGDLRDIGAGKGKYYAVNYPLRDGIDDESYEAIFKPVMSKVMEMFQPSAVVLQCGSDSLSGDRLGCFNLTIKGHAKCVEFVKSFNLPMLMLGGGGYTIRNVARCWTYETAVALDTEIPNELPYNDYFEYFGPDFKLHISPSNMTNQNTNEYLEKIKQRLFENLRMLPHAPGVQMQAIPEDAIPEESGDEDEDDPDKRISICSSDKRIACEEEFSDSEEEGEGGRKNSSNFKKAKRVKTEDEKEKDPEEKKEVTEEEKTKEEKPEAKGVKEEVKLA

[12] = Metabolic stability in human liver microsomes; format: ADME, Microsome
U-937 = assay: Inhibition of human U937 cells; format: functional, cell-based
A2780 = assay: Inhibition of human A2780 cells; format: functional, cell-based
G-401 = assay: Inhibition of human G401 cells; format: functional, cell-based
[13] = Growth inhibition of human renal epithelial cells; format: functional, cell-based; conditions: Epithelial cell
Histone deacetylase 1 [14] = target: T4, Histone deacetylase 1
Histone deacetylase 1 [15] = target: T4, Histone deacetylase 1; remark: listed apart in the source
Description: Inhibition of human HDAC1

Histone deacetylase 4 [16] = target: T2, Histone deacetylase 4; remark: listed apart in the source
A549 [17] = assay: cells; conditions: Homo sapiens
Description: Antiproliferative activity against human A549 cells

[18] = target: Histone deacetylase 7 (Homo sapiens) (UniProt Q8WUI4); assay: Inhibition of HDAC7
A549 [19] = assay: Antitumor activity against human A549 cells xenografted in nude mouse model at 70 mg/kg, po; format: functional; conditions: read-out: TGI
SW48 [20] = assay: Antitumor activity against human SW48 cells xenografted in nude mouse model at 60 mg/kg, po; format: functional; conditions: read-out: TGI
HCT-116 [21] = assay: Antitumor activity against human HCT116 cells xenografted in nude mouse model at 20 mg/kg, ip; format: functional; conditions: HCT-116, ip, route intraperitoneal, read-out: TGI
SW48 [22] = assay: Antitumor activity against human SW48 cells xenografted in nude mouse model at 25 mg/kg, ip; format: functional; conditions: route intraperitoneal, read-out: TGI

GI50 (HeLa): 40 µM
GI50 (HL-60): 400 nM
SMILES: Nc1ccc(F)cc1NC(=O)c1ccc(CNC(=O)/C=C/c2ccccc2)cc1

IC50 (Histone deacetylase 8): > 20 µM
IC50 (Histone deacetylase 4 [1]): > 20 µM
IC50 (Histone deacetylase 5): > 20 µM
IC50 (Histone deacetylase 7): > 20 µM
SMILES: CC(=O)Nc1ccc(C(=O)Nc2cc(-c3cccs3)ccc2N)cc1

IC50 (HCT-116 [2]): 400 nM
bioavailability [3]: 20%
SMILES: COc1ccc(NCc2ccc(C(=O)Nc3ccccc3N)cc2)cc1OC
inhibition in vivo at 50 mg/kg (A549 [4]): 67%
inhibition in vivo at 50 mg/kg (PANC-1): 84%
inhibition in vivo at 30 mg/kg (SW48 [5]): 78%
inhibition in vivo at 40 mg/kg (A549 [6]): 73%
inhibition in vivo at 75 mg/kg (HCT-116 [7]): 86%
inhibition in vivo at 75 mg/kg (SW48 [8]): 100%

IC50 (MKN-45): 630 nM
IC50 (Cytochrome P450 3A4): 510 nM
SMILES: O=C(NO)c1ccc(-c2ccn(CCNCc3ccc4c(c3)OCO4)n2)s1

IC50 (Histone deacetylase 3): 80 nM
inhibition (Histone deacetylase 4 [9]): 30%
IC50 (Histone deacetylase 8): 3.7 µM
IC50 [10]: 12 µM
IC50 (Histone deacetylase 9): 28 µM
IC50 (Histone deacetylase 5): 10 µM
IC50 (Histone deacetylase 7): 9.7 µM
SMILES: CC(C)[C@H]1NC(=O)[C@@H](C)[C@@H](C/C=C\CCC(=O)O)NC(=O)[C@@H](Cc2ccccc2)NC(=O)[C@@H](C)NC1=O [AZUMAMIDE E]

SMILES: CC(=O)CCCCC[C@H](NC1CCCCN1C)C(=O)Nc1nc(-c2ccccc2)cs1 (some centres not stated)
IC50 (Histone deacetylase 3): 14 nM
IC50 (MCF7): 230 nM
IC50 (Histone deacetylase 2): 170 nM
IC50 (HCT-116 [2]): 670 nM
IC50 (Histone deacetylase 1 [11]): 430 nM
microsomal CLint [12]: 54 µL/min/mg
IC50 (U-937): 450 nM
IC50 (A2780): 1700 nM
IC50 (G-401): 250 nM
IC50 [13]: > 20 µM
IC50 (HeLa): 430 nM
IC50 (Histone deacetylase 1 [14]): 55 nM
IC50 (Histone deacetylase 8): 3 µM
IC50 (Histone deacetylase 1 [15]): 55 nM
IC50 [10]: 0.013 µM
IC50 (Histone deacetylase 5): 1.9 µM
AC50 (Histone deacetylase 4 [16]): Not Active
IC50 (A549 [17]): 2000 nM
Activity [18]: inactive

IC50 (HCT-116 [2]): 2000 nM
SMILES: COc1cc(NCc2ccc(/C=C/C(=O)Nc3ccccc3N)cc2)cc(OC)c1OC
inhibition in vivo at 70 mg/kg (A549 [19]): 40%
inhibition in vivo at 60 mg/kg (SW48 [20]): 16%
inhibition in vivo at 20 mg/kg (HCT-116 [21]): 80%
inhibition in vivo at 25 mg/kg (SW48 [22]): 73%
